Here are results for three compounds from PMC12206857 (Frontiers in Microbiology, 2025).

Data set [1] has as its system F. graminearum. It is filed as physicochemical, Fusarium graminearum. The following applies: filter paper method; for Effect of divalent cations Fe2+, Mg2+, Ca2+ on antifungal activity: 10 nM metal ion; for Thermal stability of antifungal activity: 25°C, 50°C, 100°C water for 30 min.
For data set [2], the system named is F. graminearum. In kind it is cell-based, Fusarium graminearum. Conditions: dose-dependent, DCFH-DA fluorescence.
The subject of data set [3] is F. graminearum. In kind it is cell-based, Fusarium graminearum. The following applies: DiSC3(5) fluorescence.
The subject of another data set is DON and ZEN. The arrangement: species or system Fusarium graminearum on corn seeds. The following applies: in vivo.
Another data set addresses proteinase K (Parengyodontium album, UniProt P06873). Conditions: n = 3.
Data set [4] has as its system F. graminearum. Conditions: mixture of bacillomycin D with different fatty acid chain lengths; ref Gu et al., 2017; cited from earlier work.
A further data set deals with F. graminearum hyphae. In kind it is cell-based, Fusarium graminearum. Conditions: 16 and 32 μg/mL, 12 h in PDB at 28°C.
The next data set has as its target T1, papain (Carica papaya, UniProt P00784).
T1 sequence (P00784 134-345): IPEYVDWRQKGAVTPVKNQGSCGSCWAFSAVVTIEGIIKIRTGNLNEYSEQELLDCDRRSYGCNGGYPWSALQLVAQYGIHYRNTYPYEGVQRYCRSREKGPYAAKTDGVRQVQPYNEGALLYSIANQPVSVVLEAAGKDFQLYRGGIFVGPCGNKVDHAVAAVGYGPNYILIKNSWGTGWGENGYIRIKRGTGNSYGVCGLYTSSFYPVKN
Conditions: n = 3.

For a further data set, the system named is trypsin. The following applies: 5 mg/mL enzyme, 1 h, 37°C, stopped 10 min at 100°C; read-out antifungal activity against F. graminearum by filter paper method; n = 3.
The test system of data set [5] is F. graminearum. It is filed as in vivo, Fusarium graminearum on corn seeds. Conditions: seeds soaked in 64 μg/mL, sprayed with spores 1 × 10^5 CFU/mL, 28°C, 10 seeds per group.
The next data set relates to pepsin. Conditions: 5 mg/mL enzyme, 1 h, 37°C, stopped 10 min at 100°C; read-out antifungal activity against F. graminearum by filter paper method; n = 3.
The test system of another data set is F. graminearum cells. The following applies: ref Liang et al., 2023; cited from earlier work.
The subject of a further data set is Fusarium oxysporum. The following applies: 25 μg/mL or 50 μg/mL; ref Hua et al., 2023; cited from earlier work.
Another data set has as its system F. graminearum conidia. Conditions: ref Gong et al., 2015; cited from earlier work.

“Also recorded” adds a separate entry of the source. Like-named read-outs stand apart in the source and are kept apart here. *1 amine or outer side, *2 acyl side, *3 side chain or, on linkers, in order; H or OH if unused. Where a SMILES comes first, the peptide text is derived from it. [ ]: non-standard residue; d: D form. X1 = CC(C)CCCCCCCCC[C@H](CC(=O)[*:2])N[*:1]

Chain of proteinase K (P06873 106-384): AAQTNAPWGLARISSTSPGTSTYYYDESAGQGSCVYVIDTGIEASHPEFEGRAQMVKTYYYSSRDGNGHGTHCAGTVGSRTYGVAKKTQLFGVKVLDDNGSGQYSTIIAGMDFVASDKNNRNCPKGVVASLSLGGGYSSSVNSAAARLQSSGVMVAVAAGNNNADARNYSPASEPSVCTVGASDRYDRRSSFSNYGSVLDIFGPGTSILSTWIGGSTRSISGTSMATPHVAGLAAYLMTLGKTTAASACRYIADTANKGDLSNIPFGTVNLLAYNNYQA

Consider `CC(C)CCCCCCCCC[C@@H]1CC(=O)N[C@@H](CC(N)=O)C(=O)N[C@H](Cc2ccc(O)cc2)C(=O)N[C@H](CC(N)=O)C(=O)N2CCC[C@H]2C(=O)N[C@@H](CCC(=O)O)C(=O)N[C@H](CO)C(=O)N[C@@H]([C@@H](C)O)C(=O)N1` [bacillomycin D, C15-bacillomycin D] (cyclo([X1]N[dY][dN]PE[dS]T)), for which, in the data set with F. graminearum [1] (10 nM Na+, K+, Ca2+, Mg2+, Cu2+, Fe2+, Fe3+, room temperature, 2.5 mg/mL, n = 3), the “Stability of antifungal activity in the presence of metal ions” value was “retained stable antibacterial activity”. Besides, the “Effect of divalent cations Fe2+, Mg2+, Ca2+ on antifungal activity” value was “enhance their antifungal activity” in the data set on F. graminearum [1] (room temperature, 2.5 mg/mL, n = 3) and “significantly enhanced” in the data set with F. graminearum [1] (room temperature, 2.5 mg/mL, n = 3, listed as eumelanin). The “Thermal stability of antifungal activity” value with F. graminearum [1] (7 μL of 2.5 mg/mL, colony diameter after 24 h at 28°C, n = 3) is reported as “remains stable”; in the data set with F. graminearum [1] (7 μL of 2.5 mg/mL, colony diameter after 24 h at 28°C, n = 3, listed as Bacillomycin D), “maintained stable antibacterial activity”. For the same compound, in the data set with F. graminearum [1] (pH 2–12, room temperature), the “Antifungal activity across pH range 2–12” value is given as “maintains good antifungal activity”. The “pH stability of antifungal activity, pH 8 or 10” value in the data set with F. graminearum [1] (pH 8 or 10 (pH 8–10), room temperature, 7 μL of 2.5 mg/mL, colony diameter after 24 h at 28°C, n = 3) was “significant enhancement of antibacterial activity; also recorded: significant increase in antifungal activity”. In the data set on F. graminearum [1] (pH 14, room temperature, 2.5 mg/mL, n = 3), the “pH stability of antifungal activity, pH 14” value was “complete loss of activity”. For the same compound, the “pH stability of antifungal activity, other pH conditions” value in the data set on F. graminearum [1] (pH values from 2 to 14 other than 8, 10 and 14, room temperature, 2.5 mg/mL, n = 3) is listed as “the activity remained stable”. The “ROS levels in F. graminearum cells (in words)” value with F. graminearum [2] is “induced abnormal ROS accumulation”. Also, the “Cell membrane potential (in words)” value with F. graminearum [3] is “induced depolarization”. In addition, the “DON toxin synthesis in treated maize seeds” value in the data set with DON and ZEN is “no detectable synthesis”. Besides, the “ZEN toxin synthesis in treated maize seeds” value with DON and ZEN was “no detectable synthesis”. The “Activity after treatment with proteinase K” value on proteinase K is listed as “retained their activity”. The “Half-inhibitory concentration (IC50) on F. graminearum” value in the data set with F. graminearum [4] is “approximately 30 μg/mL”. In addition, the “Hyphal morphology by SEM” value with F. graminearum hyphae is listed as “induced abnormal development”. On papain, the “Activity after treatment with papain” value is “retained their activity”. Moreover, the “Activity after treatment with trypsin” value with trypsin is listed as “retained their activity”. In addition, the “Infection of maize seeds by F. graminearum” value in the data set with F. graminearum [5] is “completely preventing infection”. Further, in the data set with pepsin, the “Activity after treatment with pepsin” value was “retained their activity”.
For the compound surfactin, the “Intracellular ROS accumulation in F. graminearum cells” value with F. graminearum cells was “induce intracellular ROS accumulation”.
Take iturin A: in the data set on Fusarium oxysporum, the “Cell membrane integrity of Fusarium oxysporum” value is “disrupted” and the “ROS in Fusarium oxysporum” value is “significantly increased”. The “MIC, complete killing of F. graminearum conidia” value in the data set with F. graminearum conidia was 50 µg/mL.
